In patent US20110045101A1, “FUNGICIDAL SUBSTITUTED AZOLES” (E.I. Du Pont De Nemours and Company, priority 2009, published 2011):
Marks after values point to notes of the source that are not given here.

Columns and labels:
Assay type in all cases: in vivo
Details in all cases: 100 = 100% disease control
[1] = system: Botrytis cinerea; test: Test C: tomato Botrytis on tomato seedlings, sprayed the day before inoculation, visual disease rating
Procedure, shortened: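 Each compound is first taken up in acetone at 3% of the final volume and then brought to the desired ppm in a 50:50 acetone–water mix with 250 ppm surfactant (polyhydric alcohol esters). Tomato seedlings receive the suspension to run-off, normally at 200 ppm, occasionally 40 ppm.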

[2] = system: Alternaria solani; test: Test D: tomato early blight, sprayed the day before inoculation, visual disease rating
Procedure, shortened: (§1)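 Test rate was 200 ppm, sprayed to run-off and equal to 500 g/ha, or 40 ppm where marked. The compound was first taken up in acetone at 3% of final volume and suspended in acetone/purified water (50/50) containing 250 ppm Trem® 014.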

[3] = system: Septoria nodorum; test: Test F: wheat glume blotch on wheat seedlings, sprayed the day before inoculation, visual disease rating
Procedure, shortened: as §1

[4] = system: Septoria tritici; test: Test G: wheat leaf blotch on wheat seedlings, sprayed the day before inoculation, visual disease rating
Procedure, shortened: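 Wheat seedlings were sprayed with compound suspensions, 200 ppm unless starred (40 ppm). After next-day spore inoculation, plants spent 48 h saturated at 24° C, then 19 days at 20° C, when disease was rated visually.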

[5] = system: Puccinia recondita f. sp. tritici; test: Test H: wheat leaf rust, test suspension sprayed after inoculation of wheat seedlings, visual disease rating
Procedure, shortened: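 Wheat seedlings inoculated with P. recondita spores, held 24 h saturated at 20 °C, then 2 days in growth chamber at 20 °C; compound suspension (acetone/water with Trem 014) sprayed to run-off afterwards. Rated visually; 200 ppm (≈500 g/ha) unless marked *, which denotes 40 ppm.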

[6] = system: Puccinia recondita f. sp. tritici; test: Test I: wheat leaf rust on wheat seedlings, sprayed the day before inoculation, visual disease rating
Procedure, shortened: as §1

[7] = system: Erysiphe graminis f. sp. tritici; test: Test J: wheat powdery mildew on wheat seedlings, sprayed the day before inoculation, visual disease rating
Procedure, shortened: as §1

[8] = 200 ppm, 0 = no control relative to controls
[9] = 40 ppm (marked *), 0 = no control

| Structure (SMILES) | Test C disease control rating [1, 8] [%] | Test D disease control rating [2, 8] [%] | Test F disease control rating [3, 8] [%] | Test G disease control rating [4, 8] [%] | Test H disease control rating [5, 8] [%] | Test I disease control rating [6, 8] [%] | Test J disease control rating [7, 8] [%] | also measured |
| --- | --- | --- | --- | --- | --- | --- | --- | --- |
| CCOc1ccc(F)c(-c2c(Cl)ncn2-c2ccc(Cl)cc2)c1F [compound 660] | 100 | 98 | 82 | 100 | 9 | 92 | 100 | – |
| COc1cc(F)c(-c2c(Cl)nc(Cl)n2-c2ccc(OC(F)(F)F)cc2)c(F)c1 [compound 568] | 99 | 100 | 98 | 94 | 72 | 100 | 100 | – |
| Cc1nc(Cl)c(-c2c(F)ccc(C#N)c2F)n1-c1ccc(Cl)cc1 [Compound 430, 3-[4-chloro-1-(4-chlorophenyl)-2-methyl-1H-imidazol-5-yl]-2,4-difluorobenzonitrile] | – | – | – | – | – | – | – | pest or weed control at 200 ppm ([1]; Botrytis cinerea, 120 h, 200 ppm, 0 = no control relative to controls): 100%; pest or weed control at 200 ppm ([2]; Alternaria solani, 168 h, 200 ppm, 0 = no control relative to controls): 100%; pest or weed control at 200 ppm ([3]; Parastagonospora nodorum, 264 h, 200 ppm, 0 = no control relative to controls): 100%; pest or weed control at 200 ppm ([4]; Zymoseptoria tritici, 504 h, 200 ppm, 0 = no control relative to controls): 100%; pest or weed control at 200 ppm ([5]; Puccinia recondita, 96 h, 200 ppm, 0 = no control relative to controls): 0%; pest or weed control at 200 ppm ([6]; Puccinia recondita, 168 h, 200 ppm, 0 = no control relative to controls): 100%; pest or weed control at 200 ppm ([7]; Blumeria graminis, 168 h, 200 ppm, 0 = no control relative to controls): 100% |
| COc1cc(F)c(-c2c(Cl)nc(Cl)n2-c2ccc(OC)nc2)c(F)c1 [compound 516] | 97 | 100 | 100 | 100 | 100 | 100 | 100 | – |
| COc1cc(F)c(-c2c(Br)nc(Br)n2-c2ccc(C)nc2)c(F)c1 [compound 554] | 100 | 100 | 100 | 99 | 100 | 100 | 100 | – |
| COc1cc(F)c(-c2c(N(C)C)ncn2Cc2ccc(Cl)cc2)c(F)c1 [compound 265] | – | – | – | – | – | – | – | Test C disease control rating ([1]; 200 ppm, 0 = no control): 97%; Test D disease control rating ([2]; 200 ppm, 0 = no control): 0%; Test F disease control rating ([3]; 200 ppm, 0 = no control): 60%; Test G disease control rating ([4]; 200 ppm, 0 = no control): 86%; Test H disease control rating ([5]; 200 ppm, 0 = no control): 32%; Test I disease control rating ([6]; 200 ppm, 0 = no control): 61%; Test J disease control rating ([7]; 200 ppm, 0 = no control): 0% |
| COc1cc(F)c(-c2c(C)nnn2-c2ccc(Cl)cc2)c(F)c1 [compound 628] | 99 | 100 | 0 | 100 | 0 | 99 | 99 | – |
| CN(C)c1ccc(-n2cnc(Cl)c2-c2c(F)cccc2F)cc1Cl [compound 650] | – | – | – | – | – | – | – | Test C disease control rating ([1]; 40 ppm (marked *)): 0* %; Test D disease control rating ([2]; 40 ppm (marked *)): 0* %; Test F disease control rating ([3]; 40 ppm (marked *)): 0* %; Test G disease control rating ([4]; 40 ppm (marked *)): 0* %; Test H disease control rating ([5]; 40 ppm (marked *)): 9* %; Test I disease control rating ([6]; 40 ppm (marked *)): 0* %; Test J disease control rating ([7]; 40 ppm (marked *)): 0* % |
| COc1cc(F)c(-c2c(Cl)nc(C)n2Cc2ccc(Cl)cc2)c(F)c1 [compound 287] | – | – | – | – | – | – | – | Test C disease control rating ([1]; 200 ppm, 0 = no control): 100%; Test D disease control rating ([2]; 200 ppm, 0 = no control): 100%; Test F disease control rating ([3]; 200 ppm, 0 = no control): 99%; Test G disease control rating ([4]; 200 ppm, 0 = no control): 95%; Test H disease control rating ([5]; 200 ppm, 0 = no control): 17%; Test I disease control rating ([6]; 200 ppm, 0 = no control): 100%; Test J disease control rating ([7]; 200 ppm, 0 = no control): 99% |
| N#Cc1ccc(F)c(-c2c(Cl)nc(Cl)n2-c2ccc(Cl)nc2)c1F [compound 691] | – | – | – | – | – | – | – | Test C disease control rating ([1]; 40 ppm (marked *)): 99* %; Test D disease control rating ([2]; 40 ppm (marked *)): 99* %; Test F disease control rating ([3]; 40 ppm (marked *)): 51* %; Test G disease control rating ([4]; 40 ppm (marked *)): 95* %; Test H disease control rating ([5]; 40 ppm (marked *)): 39* %; Test I disease control rating ([6]; 40 ppm (marked *)): 82* %; Test J disease control rating ([7]; 40 ppm (marked *)): 64* % |
| Fc1cc(-n2c(Br)nc(Br)c2-c2c(F)ccc(F)c2F)ccc1Cl [compound 382] | – | – | – | – | – | – | – | Test C disease control rating [1, 9]: 100* %; Test D disease control rating [2, 9]: 99* %; Test F disease control rating [3, 9]: 0* %; Test G disease control rating [4, 9]: 96* %; Test H disease control rating [5, 9]: 0* %; Test I disease control rating [6, 9]: 95* %; Test J disease control rating [7, 9]: 97* % |
| Fc1ccc(-n2c(Br)nc(Cl)c2-c2ccc(Cl)cc2)c(Cl)c1 [compound 329] | 99 | 99 | 0 | 94 | 0 | 90 | 99 | – |
| COc1cc(C#N)cc(F)c1-c1c(Cl)nc(Cl)n1-c1ccc(Cl)c(F)c1 [compound 575] | 96 | 0 | 0 | 73 | 0 | 76 | 72 | – |
| COc1cc(F)c(-n2cnc(C)c2-c2cccc(F)c2)c(F)c1 [compound 683] | – | – | – | – | – | – | – | Test C disease control rating ([1]; 40 ppm (marked *)): 100* %; Test D disease control rating ([2]; 40 ppm (marked *)): 97* %; Test F disease control rating ([3]; 40 ppm (marked *)): 0* %; Test G disease control rating ([4]; 40 ppm (marked *)): 67* %; Test H disease control rating ([5]; 40 ppm (marked *)): 8* %; Test I disease control rating ([6]; 40 ppm (marked *)): 0* %; Test J disease control rating ([7]; 40 ppm (marked *)): 98* % |
| COc1cc(OC)c(Cl)c(-n2cnc(Br)c2-c2ccc(Cl)cc2F)c1 [compound 641] | 95 | 96 | 94 | 99 | 100 | 100 | 83 | – |
| COc1ccc(F)c(-c2c(Cl)nc(Cl)n2Cc2ccc(Cl)cc2)c1F [compound 288] | – | – | – | – | – | – | – | Test C disease control rating ([1]; 200 ppm, 0 = no control): 100%; Test D disease control rating ([2]; 200 ppm, 0 = no control): 91%; Test F disease control rating ([3]; 200 ppm, 0 = no control): 73%; Test G disease control rating ([4]; 200 ppm, 0 = no control): 94%; Test H disease control rating ([5]; 200 ppm, 0 = no control): 32%; Test I disease control rating ([6]; 200 ppm, 0 = no control): 96%; Test J disease control rating ([7]; 200 ppm, 0 = no control): 99% |
| Cc1nc(Cl)c(-c2c(F)cccc2F)n1-c1ccc2ccccc2c1 [compound 303] | – | – | – | – | – | – | – | Test C disease control rating [1, 9]: 100* %; Test D disease control rating [2, 9]: 99* %; Test F disease control rating [3, 9]: 98* %; Test G disease control rating [4, 9]: 96* %; Test H disease control rating [5, 9]: 0* %; Test I disease control rating [6, 9]: 74* %; Test J disease control rating [7, 9]: 81* % |
| COc1ccc(F)c(-c2c(Cl)nc(Br)n2-c2ccc(Cl)c(C)c2)c1F [compound 401] | 99 | 100 | 0 | 96 | 0 | 73 | 100 | – |
| Fc1cccc(-n2c(Br)nc(Cl)c2-c2c(F)cc(F)cc2F)c1 [compound 367] | 99 | 100 | 89 | 90 | 9 | 98 | 97 | – |
| Fc1ccc(-n2c(Cl)nc(Br)c2-c2ccc(Cl)cc2)c(Cl)c1 [compound 324] | 99 | 99 | 82 | 93 | 9 | 97 | 99 | – |
| Cc1ncc(Cc2ccc(F)cc2F)n1-c1ccc(Cl)cc1 [compound 403] | 99 | 0 | 0 | 97 | 0 | 77 | 86 | – |
| Cc1nc(Br)n(-c2ccc(Cl)nc2)c1-c1c(F)ccc(C#N)c1F [compound 715] | 100 | 100 | 78 | 99 | 100 | 99 | 73 | – |
| COc1ccc(F)c(-c2c(Cl)nc(Br)n2Cc2ccc(Cl)cc2)c1F [compound 289] | – | – | – | – | – | – | – | Test C disease control rating ([1]; 200 ppm, 0 = no control): 100%; Test D disease control rating ([2]; 200 ppm, 0 = no control): 96%; Test F disease control rating ([3]; 200 ppm, 0 = no control): 0%; Test G disease control rating ([4]; 200 ppm, 0 = no control): 94%; Test H disease control rating ([5]; 200 ppm, 0 = no control): 11%; Test I disease control rating ([6]; 200 ppm, 0 = no control): 94%; Test J disease control rating ([7]; 200 ppm, 0 = no control): 97% |
